# Results published in patent US20060018827A1, “Positron therapy of inflammation, infection and disease” (priority 2004, published 2006).
# Values joined by “and” are separate entries in the source; they are usually repeats but may differ in a detail not shown here. Equal values may be shown once.
# Experiments:
# xenografted Notch tumor = assay: PET-CT imaging of Notch tumor-bearing mice with ^18F-FDG; assay type: in vivo, mouse; details: nude mice with Notch tumor; PET-CT 1 hour after i.p. 0.5 mCi
# Experimental: Notch cell line. Mouse mammary gland cell line 5505 was derived from mammary tumors arising in transgenic mice which express an activated form of Notch 4 from the mouse mammary tumor virus long terminal repeat (MMTV-LTR) promoter/enhancer (Fitzgerald et al. 2000). This cell line is further referred to herein as Notch cells. The Notch cells were cultured in DMEM supplemented with 10% FCS, 10% NCTC-109, 1% non-essential amino acids, […] D-glucose and 1% penicillin-streptomycin.
# Animals. All procedures involving mice were conducted in accordance with the National Institutes of Health regulations concerning the use and care of experimental animals. The study of mice was approved by the Albert Einstein College of Medicine (AECOM) Animal Use Committee. Transgenic mice expressing the polyoma middle T antigen (PyMT) in the mammary epithelium under the control of mouse mammary tumor virus (MMTV) long terminal repeat were provided by Dr. W. J. Muller (McMaster University, Ontario, Canada) and then bred at AECOM. At the age of 10 weeks these mice have multiple mammary tumors 0.15-0.17 cm in diameter. […]
# Notch tumor-bearing animals were fasted and anesthetized as described above. […] The tumor to normal muscle ratio (TNR) was calculated according to the formula: TNR=average counts per pixel in tumor/average counts per pixel in normal muscle.
# BALB/c mice = assay: Radiotoxicity studies of ^18F-FDG in healthy mice; assay type: in vivo, mouse; details: doses of up to 5 mCi i.p., 1 month
# Experimental: Radiotoxicity studies of ^18F-FDG in healthy mice. After a 4-hour fast, […] of BALB/c mice were treated i.p. with the following doses of ^18F-FDG: group 1 (three mice), 2.5 mCi; group 2 (three mice), 5 mCi; group 3 (three mice), left untreated for control. The mice were monitored for changes in behavior and body weight for 1 month, after which they were killed. Their heart, brain, liver, kidneys, bladder, and bone marrow were removed, fixed in buffered formalin, sectioned, stained with hematoxylin and eosin (H&E), and analyzed histologically.
structure (smiles),measurement,setting,value
"O=C[C@H]([18F])[C@@H](O)[C@H](O)[C@H](O)CO [^18F-FDG, ^18F-2-deoxy-2-fluoro-D-glucose]",tumor to normal muscle ratio (TNR),xenografted Notch tumor,3.24 and 3.24±0.20
same,damage in major organs including bone marrow (histological examination),BALB/c mice,no damage in major organs
